From PMC3853281, “The Strawberry Pathogenesis-related 10 (PR-10) Fra a Proteins Control Flavonoid Biosynthesis by Binding to Metabolic Intermediates” (The Journal of Biological Chemistry, 2013)

Experiments:
Fra a 1E = molecular target: T1, Fra a 1E (Fragaria x ananassa, UniProt Q256S2); experiment: isothermal titration calorimetry; type: binding
T1 construct: gene FRAA1E.1; full-length ORF in pETM11, E. coli BL21(DE3); N-terminal His6 cut by TEV, Ala-Met-Ala left at N-terminus; monomer, 18 kDa by SEC-MALLS; residues 2-160 modelled
T1 sequence (Q256S2 whole entry, the tested form may be a part): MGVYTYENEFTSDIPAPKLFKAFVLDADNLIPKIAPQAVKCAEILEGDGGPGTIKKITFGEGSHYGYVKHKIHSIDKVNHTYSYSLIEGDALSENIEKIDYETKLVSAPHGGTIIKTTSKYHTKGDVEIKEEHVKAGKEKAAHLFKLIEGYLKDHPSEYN

Fra a 2 = molecular target: T2, Fra a 2 (Fragaria x ananassa, UniProt D0E0C6); experiment: isothermal titration calorimetry; type: binding
T2 construct: gene FRAA2; full-length ORF in pETM11, E. coli BL21(DE3); N-terminal His6 cut by TEV, Ala-Met-Ala left at N-terminus; apparent 28 kDa by SEC-MALLS
T2 sequence (D0E0C6 whole entry): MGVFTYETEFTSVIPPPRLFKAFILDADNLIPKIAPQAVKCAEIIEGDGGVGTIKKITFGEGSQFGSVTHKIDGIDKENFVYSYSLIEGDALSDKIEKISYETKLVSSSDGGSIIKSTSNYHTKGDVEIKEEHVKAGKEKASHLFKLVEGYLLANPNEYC

SMILES	Kd (Fra a 1E) [µM]	Kd (Fra a 2) [µM]
O=C(O)[C@H]1O[C@@H](Oc2c(-c3ccc(O)c(O)c3)oc3cc(O)cc(O)c3c2=O)[C@H](O)[C@@H](O)[C@@H]1O [Quercetin-3-O-glucuronide]	5.3	
O=c1c(O)c(-c2cc(O)c(O)c(O)c2)oc2cc(O)cc(O)c12 [myricetin]		19.5
